Assay results from patent publication US8703451B2, “Method for the production of free carboxylic acids” (priority 2008, dated 2014).

Tests used:
[1] = tested on: Ralstonia eutropha PHB-4 (reclassified as Cupriavidus necator, DSMZ 541); format: cell-based; conditions: 0.5%, 1%, 5% and 10% (w/v) TOA; over a period of 20 hours (fermentation time 46-65 hours)
Protocol: Biocompatibility of TOA (trioctylamine) with Ralstonia eutropha Cultures of Ralstonia eutropha PHB-4 (reclassified as Cupriavidus necator, DSMZ 541) transformed with the plasmid: pBBR1MCS-2::icmA-icmB with SEQ ID No. 1 were fermented on a 400 ml scale in a standard medium for 46 hours to an OD (optical density at 600 nm) of ca. 30, which corresponds to a CFU (colony formed units) of 1×10^11 per ml, under standard conditions (30° C.; pH 6.8; rpm 250-750; pO2 20%).
After a fermentation time of 48 hours, 0.5%, 1%, 5% and 10% (w/v) trioctylamine (TOA) were added under sterile conditions. After a further 6 and 20 hours the CFU were determined.
To ascertain the CFU, dilution series of the broths were prepared. The dilutions were plated out onto agar plates and incubated for 24 hours at 30° C.
The values are summarized in the table below, the CFU values are standardized to 1 ml of fermentation broth.

[2] = tested on: Ralstonia eutropha PHB-4 (reclassified as Cupriavidus necator, DSMZ 541); format: cell-based; conditions: 1, 5 and 10% (w/v) TOA; shake flasks, 24 h, 30° C., 140 rpm
Protocol: 2-Hydroxyisobutyric-acid-producing Ralstonia eutropha PHB-4 (reclassified as Cupriavidus necator, DSMZ 541), which have been transformed with the plasmid pBBR1MCS-2::icmA-icmB, SEQ ID No. 1, were grown as two 50 ml cultures in a shaking incubator under standard conditions (30° C., 140 rpm, 20 h) in LB medium.
From this, for the biomass production, 5×10 ml were inoculated over into 40 ml of modified mineral salt medium (in accordance with Schlegel et al., 1961) and incubated for 10 h under standard conditions
The biomass cultures were centrifuged off and resuspended in 10 ml of modified mineral salt medium.
Using the resuspensions, 5 flasks of a Ramos shaking incubator (Respiration Activity Monitoring System) were inoculated. The flasks were filled with modified mineral salt medium (addition of 1 g/l of yeast extract and 15 g/l of fructose) with vitamin B12 (60 mg/l). 3 flasks additionally comprised 1, 5 and 10% (w/v) of trioctylamine (TOA).
The flasks were incubated for 24 h under standard conditions (30° C., 140 rpm).
After 0, 15 and 24 hours, samples were taken and CFU (OD), pH, and 2HIB concentration in the broth were determined.
For the CFU determination, dilution series of the broths were prepared. The dilutions were plated out onto LB agar plates with 300 mg/l of Kanamycin and incubated for 24 h at 30° C. A 4-fold determination of the dilutions 10^−8 and 10^−9 was carried out.

Question: For `CCCCCCCCN(CCCCCCCC)CCCCCCCC` [TOA, trioctylamine], which “Change of CFU in the presence of TOA” value [1] is on record?
Answer: The value was “increased further”.

Question: What about the “Influence on cell growth (CFU, FIG. 1)” value [2] of the same compound?
Answer: The value was “not influenced”.
